# Measurements from US20230330251A1, “METHODS FOR TREATING CANCERS WITH ANTIBODY DRUG CONJUGATES (ADC) THAT BIND TO 191P4D12 PROTEINS” (AGENSYS, INC., priority 2020, published 2023).
# Non-standard residues stand in square brackets, D forms with d. Residues, ends and D or L forms follow the SMILES beside them. *: point of attachment. Dolaproine = CO[C@@H]([C@@H]1CCCN1)[C@@H](C)C(=O)O; Dil = CC[C@H](C)[C@H](NC)[C@@H](CC(=O)O)OC; X1 = C[C@@H](N*)[C@@H](O)c1ccccc1; NMeV = CN[C@H](C(=O)O)C(C)C
# What was measured:
# subjects = conditions: cited from earlier work
# [1] = system: locally advanced or metastatic urothelial cancer; conditions: second line, KEYNOTE-045; cited from earlier work
# PD-1 = PD-1 (Homo sapiens, UniProt Q15116); conditions: cited from earlier work
# Sequence of PD-1 (Q15116 25-288): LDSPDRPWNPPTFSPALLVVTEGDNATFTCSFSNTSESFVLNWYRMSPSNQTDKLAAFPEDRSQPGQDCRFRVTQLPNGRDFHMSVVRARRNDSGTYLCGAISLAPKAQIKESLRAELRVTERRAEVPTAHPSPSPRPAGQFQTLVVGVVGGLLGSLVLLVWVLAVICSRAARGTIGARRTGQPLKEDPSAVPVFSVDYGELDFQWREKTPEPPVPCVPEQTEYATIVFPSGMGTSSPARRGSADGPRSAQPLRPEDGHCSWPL
# [2] = Phase 1 study of EV: pharmacokinetics; type: in vivo, human; conditions: EV dosing on Days 1, 8 and 15 of every 28-day cycle
# Description: Based on pharmacokinetic data from the phase 1 study, the half-life of EV is ˜1-2 days. […] Minimal (<50%) intra-cycle accumulation of MMAE was observed. It is anticipated that the dosing schedule in the study will maintain ADC exposures over each 28-day cycle, contributing to a favorable balance of activity and safety, as observed in the phase 1 trial.
# [3] = system: acute myeloid leukemia (AML) at relapse; conditions: administered alone; cited from earlier work
# urothelial cancer = conditions: second line treatment; best supportive care 4.6 months; cited from earlier work
compound,measurement,setting,value
"CC(=O)O[C@@]12CO[C@@H]1C[C@H](O)[C@@]1(C)C(=O)[C@H](O)C3=C(C)[C@@H](OC(=O)[C@H](O)[C@@H](NC(=O)OC(C)(C)C)c4ccccc4)C[C@@](O)([C@@H](OC(=O)c4ccccc4)[C@H]21)C3(C)C [Docetaxel, docetaxel]",fluid retention following docetaxel therapy,subjects; in vivo,Severe fluid retention has been reported
pembrolizumab: humanized monoclonal IgG4 anti-PD-1 antibody,Median OS,[1],10.3 months
BGB-A317: anti-PD-1 monoclonal antibody in which the ability to bind Fc gamma receptor I is engineered out,binding to PD-1,PD-1,high affinity
"CC[C@H](C)[C@@H]([C@@H](CC(=O)N1CCC[C@H]1[C@H](OC)[C@@H](C)C(=O)N[C@H](C)[C@@H](O)c1ccccc1)OC)N(C)C(=O)[C@@H](NC(=O)[C@@H](NC)C(C)C)C(C)C [MMAE, monomethyl auristatin E, reference compound] (H-[NMeV]V[Dil][Dolaproine]-X1)",intra-cycle accumulation of MMAE,[2],< 50%
"CT-011: anti-PD-1 antibody, a humanized antibody",response in acute myeloid leukemia (AML) at relapse,[3],failed to show response
"CC[C@]12C=CCN3CC[C@@]4(c5cc([C@@]6(C(=O)OC)C[C@@H]7C[C@@H](C(C)(F)F)CN(Cc8c6[nH]c6ccccc86)C7)c(OC)cc5N(C)[C@H]4[C@@](O)(C(=O)OC)[C@@H]1OC(C)=O)[C@@H]32 [Vinflunine, vinflunine]",Median OS,urothelial cancer,6.9 months
same,Cases of Posterior Reversible Encephalopathy Syndrome (PRES),subjects; after administration of vinflunine,have been observed
